Data: patent publication US8846704B2, “Thiopyrimidine-based compounds and uses thereof” (YM Biosciences Austraila Pty Ltd, priority 2007, dated 2014)

molecular target: T1, BaF3 TELJAK3 cells (Homo sapiens, UniProt P52333); assay: Cellular screening, BaF3 TEL:JAK3 cells, Alamar Blue; type: cell-based; conditions: 40 hr, read-out: BafT_J3 IC50_nM
T1 construct: fused on or other part: TEL (ETV6) N-terminal part, coding nucleotides 1-487, serves as the oligomerising partner; It is fused through a Sal I site to the JAK3 kinase domain and expressed from pTRE2 in BaF3 cells bearing pTET-off; P41212 (Transcription factor ETV6)
T1 sequence (P52333 1-1124): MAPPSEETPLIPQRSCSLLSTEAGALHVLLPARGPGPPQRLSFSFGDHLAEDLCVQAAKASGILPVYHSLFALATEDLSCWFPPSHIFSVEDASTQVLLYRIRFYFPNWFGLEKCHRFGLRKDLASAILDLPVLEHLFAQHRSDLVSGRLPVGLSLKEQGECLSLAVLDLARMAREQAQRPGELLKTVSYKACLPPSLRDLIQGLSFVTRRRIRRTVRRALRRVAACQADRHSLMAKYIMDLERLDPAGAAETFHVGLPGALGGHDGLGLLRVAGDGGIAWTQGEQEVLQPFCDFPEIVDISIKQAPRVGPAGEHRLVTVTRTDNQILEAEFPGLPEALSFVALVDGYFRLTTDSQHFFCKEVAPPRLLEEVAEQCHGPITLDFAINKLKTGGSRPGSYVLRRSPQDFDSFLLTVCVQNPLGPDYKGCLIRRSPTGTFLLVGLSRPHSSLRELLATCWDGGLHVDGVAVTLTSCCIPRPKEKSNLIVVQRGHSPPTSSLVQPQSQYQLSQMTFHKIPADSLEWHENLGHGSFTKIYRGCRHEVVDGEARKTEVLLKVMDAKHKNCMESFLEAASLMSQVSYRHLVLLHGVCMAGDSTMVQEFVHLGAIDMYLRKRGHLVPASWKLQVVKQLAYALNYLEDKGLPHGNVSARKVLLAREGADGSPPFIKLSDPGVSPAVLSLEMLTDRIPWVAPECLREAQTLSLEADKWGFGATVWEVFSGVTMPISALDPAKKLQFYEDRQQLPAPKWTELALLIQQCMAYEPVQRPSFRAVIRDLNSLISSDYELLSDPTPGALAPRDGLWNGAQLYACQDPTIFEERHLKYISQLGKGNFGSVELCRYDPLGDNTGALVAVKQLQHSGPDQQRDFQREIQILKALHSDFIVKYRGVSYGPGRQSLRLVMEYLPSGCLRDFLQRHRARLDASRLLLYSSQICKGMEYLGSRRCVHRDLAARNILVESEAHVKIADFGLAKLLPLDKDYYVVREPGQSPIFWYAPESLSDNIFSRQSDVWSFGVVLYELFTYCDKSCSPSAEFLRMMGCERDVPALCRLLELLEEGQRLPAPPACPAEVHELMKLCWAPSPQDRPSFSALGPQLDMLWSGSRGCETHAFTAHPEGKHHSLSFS
In short: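 BaF3 cells carrying pTET-off and a TEL–JAK3 kinase-domain fusion, selected for growth-factor independence, were grown in DMEM with 10% Tet-approved FBS without WEHI 3B medium. Cells were exposed to compounds for 40 h at 37 °C, 5% CO2. Viability was read with Alamar Blue (4–6 h) at 544 nm.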

`C=CC(=O)Nc1ccc(Sc2ccnc(Nc3ccc(C#N)cc3)n2)cc1` [Compound 131, N-(4-(2-(4-cyanophenylao)pyrimidin-4-ylthio)phenyl)acrylamide] and `C=CC(=O)Nc1ccc(Sc2ccnc(Nc3cccc(Cl)c3)n2)cc1` [Compound 348, N-(4-(2-(3-chlorophenylao)pyrimidin-4-ylthio)phenyl)acrylamide] cannot be ordered by GI50: under 5 µM for the first, under 5 µM for the second.

`C=CC(=O)Nc1ccc(Sc2nc(Nc3ccc(N4CCOCC4)cc3)ncc2-c2ccccc2)cc1` [Compound 307, N-(4-(2-(4-morpholinophenylao)-5-phenylpyrimidin-4-ylthio)phenyl)acrylamide] and `C=CC(=O)Nc1ccc(Sc2nc(Nc3ccc(N4CCOCC4)cc3)ncc2Cl)cc1` [Compound 315, N-(4-(5-chloro-2-(4-morpholinophenylao)pyrimidin-4-ylthio)phenyl)acrylmide] cannot be ordered by GI50: under 20 µM for the first, under 1 µM for the second.

`CC#CC(=O)Nc1ccc(Sc2ccnc(Nc3ccc(N4CCOCC4)cc3)n2)cc1` [Compound 104, N-(4-(2-(4-morpholinophenylao)pyrimidin-4-ylthio)phenyl)but-2-ynamide] and `O=C(/C=C/Cl)Nc1ccc(Sc2ccnc(Nc3ccc(N4CCOCC4)cc3)n2)cc1` [Compound 342, (E)-3-chloro-N-(4-(2-(4-morpholinophenylao)pyrimidin-4-ylthio)phenyl)acrylamide] cannot be ordered by GI50: under 5 µM for the first, under 5 µM for the second.

`C=CC(=O)Nc1ccc(Sc2nc(Nc3ccc(O)cc3)ncc2C)cc1` [Compound 282, N-(4-(2-(4-hydroxyphenylao)-5-methylpyrimidin-4-ylthio)phenyl)acrylamide] and `C=CC(=O)Nc1ccc(Sc2nc(Nc3cccc(O)c3)ncc2C)cc1` [Compound 281, N-(4-(2-(3-hydroxyphenylao)-5-methylpyrimidin-4-ylthio)phenyl)acrylamide] cannot be ordered by GI50: under 1 µM for the first, under 1 µM for the second.

`O=C(CCl)Nc1cccc(Sc2ccnc(Nc3ccc(N4CCOCC4)cc3)n2)c1` [Compound 332, 2-chloro-N-(3-(2-(4-morpholinophenylao)pyrimidin-4-ylthio)phenyl)acetamide] and `C=C(CN1CCOCC1)C(=O)Nc1cccc(Sc2ccnc(Nc3ccc(N4CCOCC4)cc3)n2)c1` [Compound 328, 2-(morpholinomethyl)-N-(3-(2-(4-morpholinophenylao)pyrimidin-4-ylthio)phenyl)acrylamide] cannot be ordered by GI50: under 1 µM for the first, under 5 µM for the second.

`C=CC(=O)Nc1ccc(Sc2ccnc(Nc3ccc(S(=O)(=O)N4CCOCC4)cc3)n2)cc1` [Compound 367, N-(4-(2-(4-(morpholinosulfonyl)phenylao)pyrimidin-4-ylthio)phenyl)acrylamide] and `C=CC(=O)Nc1ccc(Sc2nc(Nc3ccc(N4CCOCC4)cc3)ncc2I)cc1` [Compound 313, N-(4-(5-iodo-2-(4-morpholinophenylao)pyrimidin-4-ylthio)phenyl)acrylamide] cannot be ordered by GI50: under 5 µM for the first, under 1 µM for the second.

`c1cn(Cc2ccc(Sc3ccnc(Nc4ccc(N5CCOCC5)cc4)n3)cc2)cn1` [Compound 127, 4-(4-((1H-imidazol-1-yl)methyl)phenylthio)-N-(4-morpholinophenyl)pyrimidin-2-ae] and `C=CC(=O)N(C)c1ccc(Sc2ccnc(Nc3ccc(N4CCOCC4)cc3)n2)cc1` [Compound 91, N-methyl-N-(4-(2-(4-morpholinophenylao)pyrimidin-4-ylthio)phenyl)acrylamide] cannot be ordered by GI50: under 20 µM for the first, under 1 µM for the second.

`C=CC(=O)Nc1ccc(Sc2ccnc(Nc3cccc([N+](=O)[O-])c3)n2)cc1` [Compound 361, N-(4-(2-(3-nitrophenylao)pyrimidin-4-ylthio)phenyl)acrylamide] and `C=CC(=O)Nc1ccc(Sc2ccnc(Nc3ccc4c(c3)OCO4)n2)cc1` [Compound 393, N-(4-(2-(benzo[d][1,3]dioxol-5-ylao)pyrimidin-4-ylthio)phenyl)acrylamide] cannot be ordered by GI50: under 5 µM for the first, under 1 µM for the second.

Compared with `CCOC(=O)/C=C\C(=O)Nc1ccc(Sc2nc(Nc3ccc(N4CCOCC4)cc3)ncc2C)cc1` [Compound 388, (Z)-ethyl 4-(4-(5-methyl-2-(4-morpholinophenylao)pyrimidin-4-ylthio)phenylao)-4-oxobut-2-enoate], `Cc1cnc(Nc2ccc(N3CCOCC3)cc2)nc1Sc1ccc(NC(=O)/C=C/C(=O)O)cc1` [Compound 387, (E)-4-(4-(5-methyl-2-(4-morpholinophenylao)pyrimidin-4-ylthio)phenylao)-4-oxobut-2-enoic acid] is higher in GI50: under 5 µM for the first, over 20 µM for the second.

`C=CC(=O)Nc1ccc(Sc2nc(Nc3ccc(OC)c(O)c3)ncc2C)cc1` [Compound 283, N-(4-(2-(3-hydroxy-4-methoxyphenylao)-5-methylpyrimidin-4-ylthio)phenyl)acrylamide] and `Cc1cnc(Nc2ccc(N3CCOCC3)cc2)nc1Sc1ccc(NC(=O)/C=C/Cl)cc1` [Compound 343, (E)-3-chloro-N-(4-(5-methyl-2-(4-morpholinophenylao)pyrimidin-4-ylthio)phenyl)acrylamide] cannot be ordered by GI50: under 1 µM for the first, under 5 µM for the second.

`C=CC(=O)Nc1ccc(Sc2nc(Nc3ccc(N4CCOCC4)cc3)ncc2C)c(Cl)c1C` [Compound 171, N-(3-chloro-2-methyl-4-(5-methyl-2-(4-morpholinophenylao)pyrimidin-4-ylthio)phenyl)acrylamide] and `Cc1cnc(Nc2ccc(N3CCOCC3)cc2)nc1Sc1ccc(NC(=O)/C(Br)=C\C(=O)O)cc1` [Compound 381, (E)-3-bromo-4-(4-(5-methyl-2-(4-morpholinophenylao)pyrimidin-4-ylthio)phenylao)-4-oxobut-2-enoic acid] cannot be ordered by GI50: under 5 µM for the first, under 20 µM for the second.

First: CC(=O)Nc1ccc(Sc2ccnc(Nc3ccc(N4CCC(N5CCCC5)CC4)cc3)n2)cc1 [Compound 86, N-(4-(2-(4-(4-(pyrrolidin-1-yl)piperidin-1-yl)phenylao)pyrimidin-4-ylthio)phenyl)acetamide]
Second: COc1cc(Sc2ccnc(Nc3ccc(N4CCOCC4)cc3)n2)ccc1N [Compound 117, 4-(4-ao-3-methoxyphenylthio)-N-(4-morpholinophenyl)pyrimidin-2-ae]
The GI50 of the first is lower: under 5 µM for the first, over 20 µM for the second.

Going from `Nc1ccc(Sc2nc(Nc3ccc(N4CCOCC4)cc3)ncc2I)cc1` [Compound 309, 4-(4-aophenylthio)-5-iodo-N-(4-morpholinophenyl)pyrimidin-2-ae] to `Cc1cnc(Nc2ccc(N3CCOCC3)cc2)nc1Sc1ccc(NC(=O)CCC(=O)O)cc1` [Compound 383, 4-(4-(5-methyl-2-(4-morpholinophenylao)pyrimidin-4-ylthio)phenylao)-4-oxobutanoic acid], the GI50 rises from under 5 µM to over 20 µM.

First: Cc1cnc(Nc2ccc(N3CCOCC3)cc2)nc1Sc1ccc(NC(=O)COCC(=O)O)cc1 [Compound 188, 2-(2-(4-(5-methyl-2-(4-morpholinophenylao)pyrimidin-4-ylthio)phenylao)-2-oxoethoxy)acetic acid]
Second: N#Cc1nccc(Sc2ccc(Sc3ccnc(Nc4ccc(N5CCOCC5)cc4)n3)cc2)n1 [Compound 154, 4-(4-(2-(4-morpholinophenylao)pyrimidin-4-ylthio)phenylthio)pyrimidine-2-carbonitrile]
The GI50 of the first is higher: over 20 µM for the first, under 5 µM for the second.

`C=CC(=O)Nc1ccc(Sc2ccnc(Nc3cccc(S(=O)(=O)NCc4ccccc4)c3)n2)cc1` [Compound 366, N-(4-(2-(3-(N-benzylsulfamoyl)phenylao)pyrimidin-4-ylthio)phenyl)acrylamide] gave a GI50 of under 5 µM.

molecular target: T2, Blk(m) (Mus musculus, UniProt P16277); assay: Upstate KinaseProfiler enzyme assay, Blk; type: biochemical; conditions: 500 nM compound; read-out: Percent inhibition at 500 nM Blk(m)
T2 construct: purchased Upstate Biotechnology (Dundee, UK), KinaseProfiler service
T2 sequence (P16277 whole entry): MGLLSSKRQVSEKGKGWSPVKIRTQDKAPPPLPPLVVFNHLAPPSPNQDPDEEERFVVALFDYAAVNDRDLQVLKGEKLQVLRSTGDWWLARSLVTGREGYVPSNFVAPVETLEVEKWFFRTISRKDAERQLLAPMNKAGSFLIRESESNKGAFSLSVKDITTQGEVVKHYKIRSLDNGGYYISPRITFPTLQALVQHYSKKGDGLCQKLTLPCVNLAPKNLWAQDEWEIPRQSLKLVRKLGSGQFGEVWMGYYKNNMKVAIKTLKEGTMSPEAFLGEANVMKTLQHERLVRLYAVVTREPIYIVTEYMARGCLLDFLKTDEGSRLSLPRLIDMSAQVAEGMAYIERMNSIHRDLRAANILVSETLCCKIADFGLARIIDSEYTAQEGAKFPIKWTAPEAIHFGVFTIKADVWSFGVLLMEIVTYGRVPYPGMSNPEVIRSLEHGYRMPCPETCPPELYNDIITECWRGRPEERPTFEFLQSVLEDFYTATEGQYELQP
In short: (§1)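 First, enzymes were pre-diluted (10× working) in 20 mM MOPS, pH 7.0, supplemented with EDTA (1 mM), BSA (1 mg/ml) and glycerol (5%), plus 0.1% β-mercaptoethanol and 0.01% Brij-35. Next, they were added to the assay alongside substrates diluted in de-ionised water.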

Point of comparison: `C=CC(=O)Nc1ccc(Sc2ccnc(Nc3ccc(C#N)cc3)n2)cc1` [Compound 131, N-(4-(2-(4-cyanophenylao)pyrimidin-4-ylthio)phenyl)acrylamide], inhibition at 0.5 µM 100%. Against it:
- C=CC(=O)Nc1ccc(Sc2nc(Nc3ccc(N4CCOCC4)cc3)ncc2-c2ccccc2)cc1 [Compound 307, N-(4-(2-(4-morpholinophenylao)-5-phenylpyrimidin-4-ylthio)phenyl)acrylamide] — lower, 0%
- CC#CC(=O)Nc1ccc(Sc2ccnc(Nc3ccc(N4CCOCC4)cc3)n2)cc1 [Compound 104, N-(4-(2-(4-morpholinophenylao)pyrimidin-4-ylthio)phenyl)but-2-ynamide] — lower, 30%

molecular target: T3, KDR(h) (Homo sapiens, UniProt P35968); assay: Upstate KinaseProfiler enzyme assay, KDR; type: biochemical; conditions: 500 nM compound; read-out: Percent inhibition at 500 nM KDR(h)
T3 construct: purchased Upstate Biotechnology (Dundee, UK), KinaseProfiler service
T3 sequence (P35968 20-1356): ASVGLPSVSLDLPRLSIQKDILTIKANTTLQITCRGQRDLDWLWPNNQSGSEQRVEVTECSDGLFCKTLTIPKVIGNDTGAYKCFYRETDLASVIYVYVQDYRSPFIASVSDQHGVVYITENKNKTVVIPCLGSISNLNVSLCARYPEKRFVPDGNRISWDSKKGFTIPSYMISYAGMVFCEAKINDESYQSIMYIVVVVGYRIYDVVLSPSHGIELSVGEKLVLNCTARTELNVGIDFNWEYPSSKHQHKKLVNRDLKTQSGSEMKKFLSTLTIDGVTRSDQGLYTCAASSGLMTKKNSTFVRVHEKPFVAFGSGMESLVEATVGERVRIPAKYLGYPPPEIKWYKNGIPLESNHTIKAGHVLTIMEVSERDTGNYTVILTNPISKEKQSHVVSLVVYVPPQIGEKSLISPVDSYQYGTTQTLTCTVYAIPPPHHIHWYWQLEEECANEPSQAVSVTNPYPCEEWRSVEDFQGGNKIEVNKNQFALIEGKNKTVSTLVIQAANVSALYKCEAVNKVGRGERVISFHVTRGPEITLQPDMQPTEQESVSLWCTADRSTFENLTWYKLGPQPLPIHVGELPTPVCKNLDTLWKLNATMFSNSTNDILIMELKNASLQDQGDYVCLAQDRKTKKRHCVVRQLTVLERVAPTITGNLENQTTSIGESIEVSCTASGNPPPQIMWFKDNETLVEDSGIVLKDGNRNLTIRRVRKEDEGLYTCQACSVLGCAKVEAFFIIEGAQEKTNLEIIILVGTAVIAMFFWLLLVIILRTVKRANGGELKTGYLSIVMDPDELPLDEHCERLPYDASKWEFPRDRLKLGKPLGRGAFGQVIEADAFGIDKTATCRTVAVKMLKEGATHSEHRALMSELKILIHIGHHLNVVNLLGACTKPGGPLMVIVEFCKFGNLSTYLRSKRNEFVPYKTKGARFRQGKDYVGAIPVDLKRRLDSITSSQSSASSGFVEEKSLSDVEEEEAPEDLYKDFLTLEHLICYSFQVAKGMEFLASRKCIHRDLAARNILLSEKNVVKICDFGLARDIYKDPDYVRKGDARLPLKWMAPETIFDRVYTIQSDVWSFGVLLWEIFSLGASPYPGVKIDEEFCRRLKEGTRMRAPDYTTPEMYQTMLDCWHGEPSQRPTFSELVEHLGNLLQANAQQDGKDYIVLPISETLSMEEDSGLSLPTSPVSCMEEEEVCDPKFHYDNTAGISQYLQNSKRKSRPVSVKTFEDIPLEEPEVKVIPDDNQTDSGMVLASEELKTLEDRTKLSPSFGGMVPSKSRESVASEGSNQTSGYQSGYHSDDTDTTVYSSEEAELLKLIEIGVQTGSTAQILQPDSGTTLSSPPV
In short: as §1

Point of comparison: `C=CC(=O)Nc1ccc(Sc2ccnc(Nc3ccc(C#N)cc3)n2)cc1` [Compound 131, N-(4-(2-(4-cyanophenylao)pyrimidin-4-ylthio)phenyl)acrylamide], inhibition at 0.5 µM 100%. Against it:
- C=CC(=O)Nc1ccc(Sc2nc(Nc3ccc(N4CCOCC4)cc3)ncc2-c2ccccc2)cc1 [Compound 307, N-(4-(2-(4-morpholinophenylao)-5-phenylpyrimidin-4-ylthio)phenyl)acrylamide] — lower, 72%
